Measurements from patent publication US4698350A, “1-ethyl-6-fluoro-1,4-dihydro- 7-(2,6-dimethyl-4-pyridinyl)-4-oxo-3-quinolinecarboxylic acid and antibacterial use thereof” (Sterling Drug Inc., priority 1984, dated 1987).
Values after ≈ are worked out from the molar mass of the structure shown. “Also recorded” adds a separate entry of the source. Like-named read-outs stand apart in the source and are kept apart here.

What was measured:
S. pneumoniae = experiment: In vitro antibacterial activity; type: cell-based; settings: one strain of S. pneumoniae
Protocol: (§1) Win 52,522 and Win 35,439 were solubilized in 0.1 ml of 0.5 N NaOH/mg of compound and diluted in sterile distilled water to 160 mcg/ml. Vancomycin and methicillin were solubilized in sterile distilled water to 1250 mcg/ml of base compound. The stock solutions were sterilized by filtration through membrane filters with a 0.45 μm pore size.
(§2) The bacterial cultures listed in Table I (hereinbelow) were grown overnight at 37° C. in MHB for all cultures except the Streptococcus strains. These were grown in BHI+10% NHS. The overnight broth cultures were adjusted to an optical density of 0.10 (650 nm, B L Spectronic 20) in sterile distilled water and subsequently diluted to 6.7×10^6 cells/ml in MHB or BHI+1% NHS.
(§3) Serial two-fold dilutions of the compound solutions were prepared in MHB (or in BHI+1% NHS for tests with Streptococci) and dispensed into 96-well microtiter trays in a volume of 0.1 ml/well using a Sandy Springs (Bellco Glass Co.) dispenser. The trays were then inoculated with 0.0015 ml of a suspension containing 6.7×10^6 cells/ml of the appropriate inoculum using a MIC-2000 inoculator (Dynatech Corp.) resulting in a final inoculum of approximately 1×10^4 cells/well or 1×10^5 cells/ml. The trays were incubated at 37° C. for 18-20 hours and the minimal inhibitory concentration (MIC), defined as the lowest concentration of compound to inhibit visible bacterial growth, was recorded.
(§4) After the MIC values were recorded, the contents in the microtiter trays were thoroughly mixed on a Bellco Mini-orbital Shaker (Bellco Glass Co.) for 3 min. at a setting of 8. A portion (0.0015 ml) from each well was then transferred via an MIC-2000 inoculator to plates containing MHA or BHI agar+10% NHS. The plates were incubated at 37° C. for 18-20 hrs. The minimal bactericidal concentration (MBC), defined as the lowest concentration of compound that prevented the formation of a recognizable colony on the agar surface, was recorded.

S. faecalis = experiment: In vitro antibacterial activity; type: cell-based; settings: all 4 strains of S. faecalis
Protocol: as §1, §2, §3, §4

[1] = system: Staphylococcus aureus Smith; experiment: Mouse protection test, S. aureus Smith infection, multiple dose; type: in vivo, ICR mice; Staphylococcus aureus; settings: for ED50: Staphylococcus aureus, 168 h, read-out: Protective Dose 50% (95% Confidence Limits)
Protocol: (§5) ICR mice, female, 18-20 grams each.
(§6) Solutions of Win 52,522 and Win 35,439 were prepared by dissolving the appropriate weight of drug in 0.3 to 0.4 ml of 1 N NaOH and then bringing the solutions to the desired volume with distilled water. Methicillin and vancomycin were dissolved directly in distilled water.
Two and one-half ml of pool were added to 247.5 ml of 5% gastric mucin to provide the test inoculum containing 2.1×10^4 cells/ml.
(§7) Mice were inoculated intraperitoneally with 0.5 ml of the bacterial test inoculum.
2. Multiple dose test--Mice were medicated subcutaneously (0.2 ml) or orally (0.5 ml) at the following times: six hours and one hour preinfection (infection at 2 pm) and twice a day (8 a.m. and 3:30 p.m.) for the next two successive days.
(§8) Deaths were recorded daily for seven days for all tests. Fifty percent protective dose values (PD50's) were calculated using probit analysis [SAS Users Guide: Statistics, 1982 Edition, SAS Institute, Inc., Cary, N.C.].

S. pyogenes = experiment: In vitro antibacterial activity; type: cell-based; settings: 3 strains of S. pyogenes
Protocol: as §1, §2, §3, §4

P. aeruginosa = experiment: In vitro MIC/MBC summary (Table II); type: cell-based, Pseudomonas aeruginosa
Protocol: as §1, §2, §3, §4

[2] = system: penicillin-sensitive and methicillin-resistant Staphylococcus aureus strains; experiment: Mouse protection tests, S. aureus infections; type: in vivo, ICR mice; Staphylococcus aureus; settings: subcutaneous and oral routes, mice
Protocol: as §5, §6, §7, §8

[3] = system: all thirteen of the target anaerobic microorganisms; experiment: Antimicrobial activity against anaerobic microorganisms; type: cell-based
Protocol: 1. Maintenance. Prior to use, all strains were maintained in the lyophilized state. During the study, cultures were examined on blood agar basal medium supplemented with 5.0% (v/v) defibrinated rabbit blood. Culture transfer was accomplished weekly with all cultures being incubated in an anaerobic atmosphere (GasPak jar; BBL).
2. Agar Medium. The basal test medium consisted of trypticase soy agar (40 g), yeast extract (1 g), glucose (2 g) and 960 ml of distilled water pH 7.2. [Mashimo et al., J. Clin. Micro. 17, 187-191 (1983)]. Subsequent to sterilization and cooling to 50° C., the medium was supplemented with 4% (v/v) defibrinated rabbit blood and 0.5 μg/ml menadione (Vitamin K3) The agent under evaluation was also added at this time to the concentration desired. Subsequent to pouring of the plates, they were permitted to dry at 4° C. for 24 hr.
3. Determination of Agent MIC. The minimal inhibitory concentration (MIC) of the various test agents was determined using an agar dilution technique. Agents and appropriate reference compounds were added to achieve a series of concentrations ranging between 32 μg/ml and 0.007 μg/ml. The inocula were prepared from 96-hr. cultures grown on the maintenance medium. Subsequent to a purity evaluation, colonies were removed and suspended in trypticase soy broth supplemented with 5 μg/ml menadione and 2% lysed rabbit blood filtrate to achieve an OD650 of 0.1 (this corresponded to approximately 10^8 cells/ml). Cultures were inoculated aerobically on the modified trypticase soy blood agar plates by use of a Steer's replicator (which delivers about 10^5 cells per spot). The plates were allowed to dry for a time not exceeding 30 min. and then incubated at 37° C. under an atmosphere of […], 10% H2 and 5% CO2 maintained in an anaerobic chamber (Coy Manufacturing Co.) for 48 hr. The MIC was defined as the lowest concentration completely inhibiting growth.
Tetracycline stock solutions (1 mg/ml) were made subsequent to dissolution in water. Stock solutions (1 mg/ml) of the remaining test compounds were made subsequent to dissolution in 1/10 N NaOH.

[4] = system: all 39 bacterial test strains; experiment: In vitro antibacterial activity; type: cell-based
Protocol: as §1, §2, §3, §4

[5] = system: S. pyogenes and S. pneumoniae; experiment: In vitro antibacterial activity; type: cell-based
Protocol: as §1, §2, §3, §4

[6] = Pseudomonas aeruginosa, 5 P. aeruginosa strains
[7] = Pseudomonas aeruginosa, 5 P. aeruginosa strains, read-out: MBC 50%
[8] = Pseudomonas aeruginosa, 5 P. aeruginosa strains, read-out: MBC 90%

Structure (SMILES) | Survivors/Total ([1]; 3.13 mg/kg po) | Survivors/Total ([1]; 3.13 mg/kg sc) | Survivors/Total ([1]; 6.25 mg/kg po) | Survivors/Total ([1]; 6.25 mg/kg sc) | Survivors/Total ([1]; 12.5 mg/kg po) | Survivors/Total ([1]; 12.5 mg/kg sc) | ED50 ([1]; po) [mg/kg] | ED50 ([1]; sc) [mg/kg] | MIC50 (P. aeruginosa; [6]) [µg/mL] | MIC90 (P. aeruginosa; [6]) [µg/mL] | MBC (P. aeruginosa; [7]) [µg/mL] | MBC (P. aeruginosa; [8]) [µg/mL] | other results
CN[C@H](CC(C)C)C(=O)N[C@H]1C(=O)N[C@@H](CC(N)=O)C(=O)N[C@H]2C(=O)N[C@H]3C(=O)N[C@H](C(=O)N[C@H](C(=O)O)c4cc(O)cc(O)c4-c4cc3ccc4O)[C@H](O)c3ccc(c(Cl)c3)Oc3cc2cc(c3O[C@@H]2O[C@H](CO)[C@@H](O)[C@H](O)[C@H]2O[C@H]2C[C@](C)(N)[C@H](O)[C@H](C)O2)Oc2ccc(cc2Cl)[C@H]1O [Vancomycin] |  |  |  |  |  |  |  |  |  |  |  |  | bactericidal / bacteriostatic (S. pneumoniae): bacteriostatic; bactericidal / bacteriostatic (S. faecalis): bacteriostatic
CCn1cc(C(=O)O)c(=O)c2ccc(-c3cc(C)nc(C)c3)cc21 [Win 35,439, 1-ethyl-1,4-dihydro-7-(2,6-dimethyl-4-pyridinyl)-4-oxo-3-quinolinecarboxylic acid] | 0/10 | 1/10 | 4/10 | 3/10 | 9/10 | 10/10 | 7.2 | 7.1 | 16 (≈ 49.6 µM) | 16 (≈ 49.6 µM) | > 16 | > 16 | Survivors/Total ([1]; 25 mg/kg po): 10/10; Survivors/Total ([1]; 25 mg/kg sc): 10/10; bactericidal / bacteriostatic (S. pyogenes): bacteriostatic
CCn1cc(C(=O)O)c(=O)c2cc(F)c(-c3cc(C)nc(C)c3)cc21 [Win 52,522, 1-ethyl-6-fluoro-1,4-dihydro-7-(2,6-dimethyl-4-pyridinyl)-4-oxo-3-quinolinecarboxylic acid] | 9/10 | 9/10 | 10/10 | 10/10 | 10/10 | 10/10 | 2.1 | 1.8 | 16 (≈ 47 µM) | 16 (≈ 47 µM) | 16 (≈ 47 µM) | 16 (≈ 47 µM) | Survivors/Total ([1]; 0.19 mg/kg po): 0/10; Survivors/Total ([1]; 0.19 mg/kg sc): 0/10; Survivors/Total ([1]; 0.39 mg/kg po): 0/10; Survivors/Total ([1]; 0.39 mg/kg sc): 0/10; Survivors/Total ([1]; 0.78 mg/kg po): 0/10; Survivors/Total ([1]; 0.78 mg/kg sc): 0/10; Survivors/Total ([1]; 1.56 mg/kg po): 2/10; Survivors/Total ([1]; 1.56 mg/kg sc): 4/10; times more efficient than Win 35,439 ([1]; po): 3.4 times; times more efficient than Win 35,439 ([1]; sc): 3.9 times; in vivo efficacy (in words) [2]: more efficacious than Win 35,439; also recorded: very potent antibacterial agent; antimicrobial activity (in words) [3]: high activity against all thirteen of the target anaerobic microorganisms; also recorded: extremely active against a number of anaerobic microorganisms; also recorded: markedly superior to both Win 35,213 and 35,439; also recorded: broad spectrum of antimicrobial activity, comparing favorably with the currant antibiotic of choice, tetracycline; MBC/MIC ([4]; all Gram-positive and Gram-negative test strains): ≤ 4; bactericidal / bacteriostatic ([4]; all test strains): bactericidal; times less potent than methicillin [5]: 2-8 times; MIC (P. aeruginosa; [6]): 4 to 16 µg/mL (≈ 11.8 to 47 µM); MBC (P. aeruginosa; Pseudomonas aeruginosa, 5 P. aeruginosa strains, read-out: MBC Range): 16 µg/mL (≈ 47 µM); potency relative to Win 35,439 (P. aeruginosa; in vitro, P. aeruginosa): similarly potent
